Test: solvent given as SMILES
[1] = in CCCCCCCC(=O)OCC(COC(=O)CCCCCCC)OC(=O)CCCCCCC

## CCCl
In CC(=O)N(C)C
  solvation free energy, 298 K: -2.93 kcal/mol
In CC(C)(C)O
  solvation free energy, 298 K: -2.44 kcal/mol
In CC(C)CCO
  solvation free energy, 298 K: -2.43 kcal/mol
In CC(C)CO
  solvation free energy, 298 K: -2.43 kcal/mol
In CC(C)O
  solvation free energy, 298 K: -2.47 kcal/mol
In CCC(C)(C)O
  solvation free energy, 298 K: -2.5 kcal/mol
In CCC(C)CO
  solvation free energy, 298 K: -2.4 kcal/mol
In CCC(C)O
  solvation free energy, 298 K: -2.41 kcal/mol
In CCC(O)CC
  solvation free energy, 298 K: -2.41 kcal/mol
In CCCC(C)O
  solvation free energy, 298 K: -2.36 kcal/mol
[1]
  solvation free energy, 298 K: -2.56 kcal/mol
In CCCCCCCCC
  solvation free energy, 298 K: -2.34 kcal/mol
In CCCCCCCCO
  solvation free energy, 298 K: -2.32 kcal/mol
In CCCCCO
  solvation free energy, 298 K: -2.47 kcal/mol
In CCCCO
  solvation free energy, 298 K: -2.5 kcal/mol
In CCCO
  solvation free energy, 298 K: -2.54 kcal/mol
In CN(C)C=O
  solvation free energy, 298 K: -2.74 kcal/mol
In CO
  solvation free energy, 298 K: -2.63 kcal/mol
In Cc1ccc(C)cc1
  solvation free energy, 298 K: -2.83 kcal/mol
In Cc1cccc(C)c1
  solvation free energy, 298 K: -2.87 kcal/mol
In Cc1ccccc1C
  solvation free energy, 298 K: -2.86 kcal/mol
In Clc1ccccc1
  solvation free energy, 298 K: -2.96 kcal/mol
In N#Cc1ccccc1
  solvation free energy, 298 K: -2.88 kcal/mol
In O
  solvation free energy, 298 K: -0.63 kcal/mol

## CC(C)CCl
In C1CCOC1
  solvation free energy, 298 K: -4.39 kcal/mol
In C1CCOCC1
  solvation free energy, 298 K: -4.28 kcal/mol
In C=CCCCCCCCCCCCCCC
  solvation free energy, 298 K: -3.51 kcal/mol
In CCCCCC
  solvation free energy, 298 K: -3.87 kcal/mol
In COC(C)(C)C
  solvation free energy, 298 K: -4.13 kcal/mol
In O
  solvation free energy, 298 K: 0.03 kcal/mol

## CCCCCCCl
In O
  solvation free energy, 298 K: 0 kcal/mol

## Oc1ccc(Br)cc1Br
In O
  solvation free energy, 298 K: -5.69 kcal/mol

## CCCCCCI
In O
  solvation free energy, 298 K: 0.08 kcal/mol

## CC(=O)OCCC(C)C
In CCCCCCCCCCCCCCCC
  solvation free energy, 298 K: -4.96 kcal/mol
In CCCCCCCCO
  solvation free energy, 298 K: -5.34 kcal/mol
In O
  solvation free energy, 298 K: -2.29 kcal/mol
In [2H]O[2H]
  solvation free energy, 298 K: -2.36 kcal/mol

## FC(F)=C(F)C(F)(F)F
[1]
  solvation free energy, 298 K: -0.41 kcal/mol
In CCCCCCCCO
  solvation free energy, 298 K: -0.32 kcal/mol
In COCCO
  solvation free energy, 298 K: 3.88 kcal/mol

## O=C(O)C=CC(=O)O
In CC(C)=O
  solvation free energy, 298 K: -10.2 kcal/mol
In CC(C)O
  solvation free energy, 298 K: -10.8 kcal/mol
In CCCO
  solvation free energy, 298 K: -10.6 kcal/mol
In CCO
  solvation free energy, 298 K: -10.8 kcal/mol
In O
  solvation free energy, 298 K: -9.96 kcal/mol
In O=C1CCCCC1
  solvation free energy, 298 K: -9.9 kcal/mol

## CCc1ccc(O)cc1
In C=CCCCCCCC=C
  solvation free energy, 298 K: -7.11 kcal/mol
In CCCCCC
  solvation free energy, 298 K: -6.53 kcal/mol
In CCCCCCC
  solvation free energy, 298 K: -6.47 kcal/mol
In CCCCCCCC
  solvation free energy, 298 K: -6.44 kcal/mol
In Cc1ccc(C)cc1
  solvation free energy, 298 K: -7.85 kcal/mol
In Cc1cccc(C)c1
  solvation free energy, 298 K: -7.83 kcal/mol
In Cc1ccccc1C
  solvation free energy, 298 K: -7.87 kcal/mol
In O
  solvation free energy, 298 K: -6.14 kcal/mol

## CCCCCCCCP(=O)(CCCCCCCC)CCCCCCCC
In O
  solvation free energy, 298 K: -15.5 kcal/mol

## CC(C)CCC(C)O (configuration not stated)
In CCCCCCCC
  solvation free energy, 298 K: -5.33 kcal/mol
In CCCCCCCCCC
  solvation free energy, 298 K: -5.22 kcal/mol

## CNCc1ccc(C)cc1
In O
  solvation free energy, 298 K: -5.95 kcal/mol

## CC(=O)CC(=O)c1cccs1
In O
  solvation free energy, 298 K: -6.08 kcal/mol

## Nc1ncnc2c1ncn2C1CC(O)C(CO)O1 (configuration not stated)
In C=CCCCCCCC=C
  solvation free energy, 298 K: -16.6 kcal/mol
In C=CCCCCCCCCCCCCCC
  solvation free energy, 298 K: -15.8 kcal/mol
In O
  solvation free energy, 298 K: -24.3 kcal/mol

## Clc1ccc(-c2ccc(Cl)c(Cl)c2Cl)c(Cl)c1Cl
In O
  solvation free energy, 298 K: -3.6 kcal/mol

## C#CCCCC
In C1CCC2CCCCC2C1
  solvation free energy, 298 K: -3.68 kcal/mol
In C1CCC(C2CCCCC2)CC1
  solvation free energy, 298 K: -3.65 kcal/mol
In CN1CCCC1=O
  solvation free energy, 298 K: -4.11 kcal/mol
In CN(C)C=O
  solvation free energy, 298 K: -3.94 kcal/mol
In CS(C)=O
  solvation free energy, 298 K: -3.55 kcal/mol
In N#CCCCCC#N
  solvation free energy, 298 K: -3.32 kcal/mol
In NCCO
  solvation free energy, 298 K: -2.4 kcal/mol
In O
  solvation free energy, 298 K: 0.29 kcal/mol
In O=Cc1ccco1
  solvation free energy, 298 K: -3.57 kcal/mol
In OCc1ccco1
  solvation free energy, 298 K: -3.31 kcal/mol
In c1ccc2c(c1)CCCC2
  solvation free energy, 298 K: -3.99 kcal/mol
In c1ccc(C2CCCCC2)cc1
  solvation free energy, 298 K: -3.88 kcal/mol

## CC(C)CO[N+](=O)[O-]
In O
  solvation free energy, 298 K: -1.88 kcal/mol

## CCS
In CC(C)CC(C)(C)C
  solvation free energy, 298 K: -3.13 kcal/mol
In CO
  solvation free energy, 298 K: -3 kcal/mol
In O
  solvation free energy, 298 K: -1.07 kcal/mol
In OCCOCCOCCOCCO
  solvation free energy, 298 K: -2.7 kcal/mol

## CCCC(C)C(C)O (configuration not stated)
In CCCCCCCC
  solvation free energy, 298 K: -5.31 kcal/mol
In CCCCCCCCCC
  solvation free energy, 298 K: -5.27 kcal/mol

## c1ccc2c(c1)CCCC2
In CCC(C)=O
  solvation free energy, 298 K: -7.43 kcal/mol
In CCCCCCC
  solvation free energy, 298 K: -7.03 kcal/mol
In CCO
  solvation free energy, 298 K: -6.29 kcal/mol
In O=Cc1ccco1
  solvation free energy, 298 K: -7.02 kcal/mol
In OCCO
  solvation free energy, 298 K: -4.97 kcal/mol
In OCCOCCO
  solvation free energy, 298 K: -5.9 kcal/mol
In OCCOCCOCCO
  solvation free energy, 298 K: -6.07 kcal/mol

## CCNc1nc(Cl)nc(NC(C)(C)C)n1
In O
  solvation free energy, 298 K: -8.66 kcal/mol

## CCCCCCCCC=CCCCCCCCC(=O)OC
In O
  solvation free energy, 298 K: -2.13 kcal/mol

## CCOP(=S)(OCC)SCSCC
In O
  solvation free energy, 298 K: -4.37 kcal/mol

— the CombiSolv-Exp solvation set (Vermeire and Green 2021)
